The results in this text go back to patent US20260124309A1, “STAT6 DEGRADERS AND USES THEREOF” (Kymera Therapeutics, Inc., priority 2023, published 2026).

pIC50: −log10 of the molar value.

The target in one assay is T1, STAT6 (Homo sapiens, UniProt P42226).
T1 construct: endogenous in cells; host or cells: A549
T1 sequence (P42226 1-847): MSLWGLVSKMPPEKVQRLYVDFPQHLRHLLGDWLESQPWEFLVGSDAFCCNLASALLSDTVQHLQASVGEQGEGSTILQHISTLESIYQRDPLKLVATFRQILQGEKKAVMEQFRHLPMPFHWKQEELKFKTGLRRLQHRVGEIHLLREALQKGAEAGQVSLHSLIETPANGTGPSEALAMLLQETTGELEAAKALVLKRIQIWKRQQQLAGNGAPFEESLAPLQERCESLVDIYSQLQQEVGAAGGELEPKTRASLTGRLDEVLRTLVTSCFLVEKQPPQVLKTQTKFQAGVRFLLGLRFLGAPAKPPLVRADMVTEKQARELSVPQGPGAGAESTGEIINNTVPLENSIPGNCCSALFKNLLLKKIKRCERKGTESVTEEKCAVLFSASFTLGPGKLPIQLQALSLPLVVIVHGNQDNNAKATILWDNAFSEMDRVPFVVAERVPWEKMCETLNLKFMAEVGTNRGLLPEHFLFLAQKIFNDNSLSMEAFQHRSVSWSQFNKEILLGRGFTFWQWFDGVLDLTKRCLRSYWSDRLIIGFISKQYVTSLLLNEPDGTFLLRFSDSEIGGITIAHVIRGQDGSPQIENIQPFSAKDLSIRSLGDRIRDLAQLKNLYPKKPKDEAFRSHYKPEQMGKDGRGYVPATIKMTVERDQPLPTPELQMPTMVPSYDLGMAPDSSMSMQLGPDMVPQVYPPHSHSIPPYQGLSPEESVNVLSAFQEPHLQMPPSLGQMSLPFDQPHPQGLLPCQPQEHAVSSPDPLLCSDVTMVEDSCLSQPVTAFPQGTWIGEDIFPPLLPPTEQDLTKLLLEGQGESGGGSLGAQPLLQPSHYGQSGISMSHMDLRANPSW
Put plainly: STAT6 MSD degradation in A549 cells. In kind it is cell-based. The note with it: 24 h. On the procedure:
Degradation of STAT6 in cells was quantitatively measured using Meso Scale Discovery (MSD) technology. A549 cells were seeded in 96-well plates with a density of 1.5×10e4 to 5×10e5 cells per well in 100 μl fresh media. Compounds were then added to the assay plates with a final top concentration of up to 10 uM in a 1:3 dilution series with total of 9 doses. The assay plates were then incubated for 4 to 24 hours at 37° C. under 5% CO2. The assay plates were then centrifuged for 5 minutes and the cell pellets were treated with 100 μl/well RIPA lysis buffer (Boston Bioproducts, BP-115D) with protease and phosphatase inhibitors (Roche, 05892791001 and 04906837001). To prepare the MSD assay plates (MSD, L15XA), the plates were coated with the capture antibody (Abnova, H00006778) in PBS, at 40 μl/well. The plates were then incubated overnight at 4° C., washed 1 time with 150 μl/well TBST buffer (Cell Signaling Technology, #9997S) and blocked with 150 μl/well blocking buffer (MSD, R93BA-4). Cell lysates were then added to MSD assay plates and the plates were incubated at room temperature for 1 hour. The plates were then washed 3 times with 150 μl/well TBST buffer and 25 μl/well primary detection antibody (Cell Signaling Technology, #5397S). The assay plates were then incubated at room temperature for 1 hour, washed 3 times with 150 μl/well TBST buffer, and 25 μl/well secondary detection antibody, SULFO-TAG anti-rabbit antibody (MSD, R32AB-1) were added. The assay plates were then incubated at room temperature for 1 hour, washed 3 times with 150 μl/well TBST buffer, and 150 μl/well MSD reading buffer (MSD, R92TC-2) were added. The plates were then analyzed by an MSD reader. The data was analyzed by GraphPad Prism and the dose dependent STAT6 degradation was fit using the four-parameter inhibitor vs. response nonlinear regression.
The letter codes for DC50 (nM) include: A (<1 nM); B (1-10 nM); C (>10-100 nM); D (>100-1000 nM); E (>1000 nM); and F (not tested). The letter codes for Dmax (oo) include: A (>90%); B (>70-90%); C (>50-70%); D ([…]); and F (not tested).

The target in a further assay is T2, STAT6-HiBiT (Homo sapiens, UniProt P42226).
T2 construct: Degradation of STAT6 in endogenously tagged STAT6-HiBiT A549 cells; endogenous in cells; host or cells: A549 (STAT6-HiBiT) knock-in cells
T2 sequence (P42226 1-847): T1 sequence (P42226 1-847)
Put plainly: STAT6 HiBiT degradation in A549 (STAT6-HiBiT) cells. Format: cell-based. The note with it: 24 h. On the procedure:
Degradation of STAT6 in endogenously tagged STAT6-HiBiT A549 cells was quantitatively measured using the Nano-Glo HiBiT Lytic Detection System (Promega, 3040). A549 (STAT6-HiBiT) cells were seeded in 384-well plates with a density of 1.25k cells per well in 20 μl fresh media. Compounds were then added to the assay plates using the Apricot S3 with a final top concentration of up to 10 uM in a 4-fold dilution series with total of 10 doses. The assay plates were then incubated for 24 hours at 37° C. under 5% CO2. At the assay endpoint, 20 μL of Nano-Glo HiBiT Lytic Reagent was added to each well and agitated on a plate shaker at 300 rpm for 10 minutes at room temperature. Luminescence was read on PHERAStar FSX Instrument (Is integration time). The data was analyzed by GraphPad Prism and the dose dependent STAT6 degradation was fit using the four-parameter inhibitor vs. response nonlinear regression.
The letter codes for DC50 (nM) include: A (<1 nM): B (1-10 nM); C (>10-100 nM); D (>100-1000 nM); E (>1000 nM); and F (not tested). The letter codes for Dmax (%) include: A (>90%); B (>70-90%); C (>50-70%); D (<50%); and E (not tested).

The target in assay [1] is T3, biotinylated truncated STAT6 (123-632)-avi (Homo sapiens, UniProt P42226).
T3 construct: biotinylated truncated STAT6 (123-632)-avi purified from E. coli; made in house; host or cells: E. coli
T3 sequence (P42226 123-632 limits assumed): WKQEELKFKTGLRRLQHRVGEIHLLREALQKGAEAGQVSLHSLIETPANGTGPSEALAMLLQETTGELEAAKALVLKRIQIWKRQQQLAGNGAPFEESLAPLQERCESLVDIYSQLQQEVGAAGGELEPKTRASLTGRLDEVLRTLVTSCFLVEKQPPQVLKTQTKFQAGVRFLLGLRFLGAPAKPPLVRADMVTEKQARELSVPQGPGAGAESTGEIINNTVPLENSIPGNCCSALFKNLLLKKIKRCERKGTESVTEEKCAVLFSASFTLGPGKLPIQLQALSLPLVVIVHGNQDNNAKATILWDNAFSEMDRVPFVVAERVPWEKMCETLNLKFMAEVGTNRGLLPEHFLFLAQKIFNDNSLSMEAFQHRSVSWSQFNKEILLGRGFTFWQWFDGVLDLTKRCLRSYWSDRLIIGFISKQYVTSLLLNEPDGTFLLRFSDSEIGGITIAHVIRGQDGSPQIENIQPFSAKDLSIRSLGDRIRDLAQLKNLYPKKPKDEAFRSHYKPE
Put plainly: STAT6 HTRF binding assay. The note with it: HTRF binding, 0.15 nM biotinylated truncated STAT6 (123-632)-avi, 20 nM fluorescein-labeled probe. On the procedure:
HTRF binding assays were performed using 0.15 nM biotinylated truncated STAT6 (123-632)-avi purified from E. coli, 1× Streptavidin-terbium (CisBio) prepared by mixing SA-Tb in PPI detection buffer (CisBio), 20 nM proprietary fluorescein-labeled probe, and test compounds in assay buffer consisting of 50 mM HEPES-Na pH 7.5, 100 mM NaCl, 1 mM EDTA, 2 mM DTT, 0.1% Tween-20 with a final volume of 20 uL. Compound stocks were dissolved at 10 mM in 100% DMSO and 11 point titration with 3 fold serial dilution was performed in white, opaque 384 well microplates. Reaction plates were incubated at room temperature for 30 minutes. Plates were centrifuged at low rpm for 5 mins, and the ratio of fluorescence intensities were measured at emission wavelengths for fluorescein acceptor (520 nm) and terbium donor (495 nm) on Envision Plate reader. % Inhibition was calculated from the 520/495 ratio generated by using proprietary positive control compound for 100% inhibition and DMSO only reactions for 0% inhibition. Data was processed and dose response curves were generated using GraphPad Prism to determine the concentration required for inhibiting 50% of the HTRF signal (IC50).
The letter codes for IC50 (μM) include: A (<0.1 μM); B (0.1-1 μM); C (>1-10 μM); D (>10-100 μM); E (>100 μM); and F (not tested).

With `CN(C)C(=O)c1cc2c(-c3ccc(C4CCN(c5ccc(C6CCC(=O)NC6=O)cc5F)CC4)cc3)cc(C3=CCCN(C(=O)CCn4cccn4)C3)c(F)c2[nH]1` (stereo not drawn) [Example I-628, 6-(1-(3-(1H-pyrazol-1-yl)propanoyl)-1,2,5,6-tetrahydropyridin-3-yl)-4-(4-(I-(4-(2,6-dioxopiperidin-3-yl)-2-fluorophenyl)piperidin-4-yl)phenyl)-7-fluoro-N,N-dimethyl-1H-indole-2-carboxamide], at STAT6, the DC50 was < 1 nM and the Dmax is > 90%. For the same compound, at STAT6-HiBiT, the Dmax is > 90%. In assay [1], the pIC50 is > 7.00.
Take `CN(C)C(=O)c1cc2c(-c3ccc(C4CCN(c5ccc(C6CCC(=O)NC6=O)cc5F)CC4)cc3)cc(C3=CCCN(C(=O)CCn4ccnn4)C3)c(F)c2[nH]1` (stereo not drawn) [Example I-1015, 6-(1-(3-(1H-1,2,3-triazol-1-yl)propanoyl)-1,2,5,6-tetrahydropyridin-3-yl)-4-(4-(1-(4-(2,6-dioxopiperidin-3-yl)-2-fluorophenyl)piperidin-4-yl)phenyl)-7-fluoro-N,N-dimethyl-1H-indole-2-carboxamide]: the DC50 at STAT6 and at STAT6-HiBiT was < 1 nM in each case. Further, the Dmax at STAT6 was 70 to 90%; at STAT6-HiBiT, > 90%. For the same compound, the pIC50 in assay [1] was > 7.00.
